Consider 15 compounds from patent US6133263A, “Endothelin antagonists with ether-linked groups” (Warner-Lambert Company, priority 1998, dated 2000).

Like-named read-outs stand apart in the source and are kept apart here. Where a SMILES comes first, the peptide text is derived from it. [ ]: non-standard residue; d: D form.

The conditions of assay [1]: oral; cited from earlier work.
For assay [2], the target named is T1, human ETB R (Homo sapiens, UniProt P24530).
T1 construct: expressed in transfected cells; host or cells: CHO-K1 cells, membranes
T1 sequence (P24530 27-442): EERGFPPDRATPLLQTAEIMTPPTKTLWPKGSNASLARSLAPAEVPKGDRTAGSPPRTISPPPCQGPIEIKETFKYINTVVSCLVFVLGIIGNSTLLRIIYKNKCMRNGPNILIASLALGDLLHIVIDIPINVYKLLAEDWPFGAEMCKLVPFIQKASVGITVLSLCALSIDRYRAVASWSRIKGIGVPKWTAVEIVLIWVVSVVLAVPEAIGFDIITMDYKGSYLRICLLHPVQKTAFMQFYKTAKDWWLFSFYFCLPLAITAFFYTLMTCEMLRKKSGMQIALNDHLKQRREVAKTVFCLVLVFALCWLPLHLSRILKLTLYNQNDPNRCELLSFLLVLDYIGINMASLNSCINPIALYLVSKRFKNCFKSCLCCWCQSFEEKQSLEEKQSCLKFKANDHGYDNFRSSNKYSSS
In words: [125I]-ET-1 radioligand binding assay, CHO-K1 cells expressing recombinant human ETB R (HERBA-B). The conditions noted are these: CHO cell membranes, [125I]-ET-1 40 pM, 2 hours at 37° C. An excerpt: The compounds of Formula I are valuable as antagonists of endothelin.
The following radioligand binding assays were used (Reynolds E. E.; Keiser J. A.; Haleen S. J.; Walker D. M.; Davis L. S.; Olszewski B.; Taylor D. G.; Hwang O.; Welch K. M.; Flynn M. A.; Thompson D. M.; et. al., J. Pharmacol. Exp. Ther., 1995;273:1410-1417).
The following cultured cells were used in binding experiments: CHO-KL cells expressing recombinant human ETB R (HERBA B), or Ltk- cells expressing human ETA R (HERBA A). […] Membranes were prepared from cultured cells by lysing cells in cold lysis buffer (5 mM HEPES, 2 mM EDTA, pH 7.4) and homogenizing with a Dounce "A" homogenizer. All of the homogenates were centrifuged at 30,000×g for 20 minutes at 4° C. Membrane pellets were resuspended in cold buffer containing 20 mM Tris, […], 200 μM Pefablock, 10 μM phosphoramidon, 10 μM leupeptin, and 1 μM pepstatin (pH 7.4) and frozen at -80° C. until use. Radioligand and competing ligands were prepared in binding buffer containing 20 mM Tris, 2 mM EDTA, and 0.1% BSA.
Competition binding assays were initiated by combining membranes, [^125 ]-ET-1 (40 pM) and competing ligand in a final volume of 250 μL and incubating for 2 hours at 37° C. The assay was terminated by filtration over Whatman GF/B filters that were presoaked with 50 mM Tris, pH 7.4, containing 0.2% BSA and 100 μM bacitracin. […] was defined as total binding minus nonspecific binding. Specific binding was analyzed by nonlinear least squared curve fitting (InPlot, GraphPad Software, San Diego, Calif.), and the estimated IC50 value was used to calculate Ki according to the method of Cheng and Prusoff (1973).

Assay [3] concerns the target T2, human ETA R (Homo sapiens, UniProt P25101).
T2 sequence (P25101 21-427): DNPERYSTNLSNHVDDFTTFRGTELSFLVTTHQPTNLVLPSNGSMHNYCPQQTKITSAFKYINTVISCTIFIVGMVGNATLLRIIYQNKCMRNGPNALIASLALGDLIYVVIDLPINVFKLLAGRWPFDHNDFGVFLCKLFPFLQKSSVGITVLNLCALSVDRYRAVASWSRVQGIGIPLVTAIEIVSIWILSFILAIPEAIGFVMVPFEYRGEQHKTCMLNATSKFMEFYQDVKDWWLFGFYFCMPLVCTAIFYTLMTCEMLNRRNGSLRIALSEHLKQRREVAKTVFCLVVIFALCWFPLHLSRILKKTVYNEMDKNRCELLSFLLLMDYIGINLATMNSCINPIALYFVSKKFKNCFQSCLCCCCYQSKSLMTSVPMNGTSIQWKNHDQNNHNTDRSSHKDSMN
In words: [125I]-ET-1 radioligand binding assay, Ltk- cells expressing human ETA R (HERBA-A). The conditions noted are these: Ltk- cell membranes, [125I]-ET-1 40 pM, 2 hours at 37° C.

Assay [4] relates to prostate smooth muscle. The conditions noted are these: in vivo; cited from earlier work.
Assay [5] deals with endothelin-stimulated arachidonic acid release in rabbit renal artery vascular smooth muscle cells. Briefly: inhibition of ET-1 stimulated arachidonic acid release (AAR) in cultured rabbit renal artery vascular smooth muscle cells. In kind it is cell-based. The conditions noted are these: Oryctolagus cuniculus, 0.5 h, read-out: AAR-A.
Assay [6] concerns vasoconstriction of the basilar artery. The conditions noted are these: after 7 days, canine two-hemorrhage model of SAH; cited from earlier work.
The test system of assay [7] is ischemic damage in the cerebral hemisphere. The conditions noted are these: cats, middle cerebral artery occlusion, IV; cited from earlier work.
The test system of assay [8] is pulmonary vascular resistance and pulmonary arterial pressure. The note with it: rat hypoxia model of hypertension; cited from earlier work.
Assay [9] relates to ischemic brain injury. The note with it: rats, oral; cited from earlier work.
The test system of assay [10] is cerebral vasospasm. The note with it: rat; cited from earlier work.
In assay [11] the test system is ET-1 induced bronchoconstriction and tracheal smooth muscle contraction. The note with it: allergic sheep; cited from earlier work.
Assay [12] deals with cerebral vasospasm. The note with it: in vivo; cited from earlier work.
Assay [13] concerns neointima formation. The note with it: rats, carotid artery balloon angioplasty; cited from earlier work.
The subject of assay [14] is chronic heart failure. The conditions noted are these: patients with chronic heart failure; cited from earlier work.
In assay [15] the test system is acute renal ischemia. The conditions noted are these: models of acute renal ischemia; cited from earlier work.
Assay [16] has as its system ET-1-induced changes in gastric mucosal hemodynamics and gastric ulceration. The conditions noted are these: in vivo; cited from earlier work.

Turning to `Cc1noc(NS(=O)(=O)c2cccc3c(N(C)C)cccc23)c1C` [5-(Dimethylamino)-N-(3,4-dimethyl-5-isoxazolyl)-1-naphthalenesulfonamide], in [1], the antihypertensive effect entry is given as “demonstrated an oral antihypertensive effect”.
Turning to `COc1ccc(C2(OCCCN(C)C)OC(=O)C(c3ccc4c(c3)OCO4)=C2Cc2cc(OC)c(OC)c(OC)c2)cc1` (centres unmarked) [Example 3, 3-Benzo[1,3]dioxol-5-yl-5-(3-dimethylamino-propoxy)-5-(4-methoxy-phenyl)-4-(3,4,5-trimethoxy-benzyl)-5H-furan-2-one], the IC50 is greater than 2500 nM in assay [2] and 12 nM in assay [3].
In the case of `COc1ccc(C2(OCCN3CCOCC3)OC(=O)C(c3cc(OC)c4c(c3)OCO4)=C2Cc2cc(OC)c(OC)c(OC)c2)cc1` (centres unmarked) [Example 5, 3-(7-Methoxy-benzo[1,3]dioxol-5-yl)-5-(4-methoxy-phenyl)-5-(2-morpholin-4-yl-ethoxy)-4-(3,4,5-trimethoxy-benzyl)-5H-furan-2-one], the IC50 in assay [2] was determined as 700 nM; in assay [3] it was 1.7 nM.
`COc1ccc(C2(O)OC(=O)C(c3ccc4c(c3)OCO4)=C2Cc2ccccc2)cc1` (centres unmarked) [PD 155080]: the “prostate smooth muscle function” value in assay [4] is recorded as “found to mediate prostate smooth muscle function in vivo”.
`COc1ccc(C2(OCCN(C)C)OC(=O)C(c3cc(OC)cc(OC)c3)=C2Cc2cc(OC)c(OC)c(OC)c2)cc1` (centres unmarked) [Example 6]: the results for the IC50 in assay [2] and in [3] were 2200 nM and 2.6 nM, respectively.
Regarding `COc1ccc(C2(OCCCS(=O)(=O)O)OC(=O)C(c3ccc4c(c3)OCO4)=C2Cc2cc(OC)c(OC)c(OC)c2)cc1` (centres unmarked), the IC50 in assay [2] worked out at 1900 nM; in [3] it was 0.15 nM; in assay [5] it was 0.3 nM.
Turning to FR 139317, the “vasoconstriction of the basilar artery” value in assay [6] is reported as “significantly inhibited the vasoconstriction of the basilar artery”.
Take `COc1ccc(C2(O)OC(=O)C(c3ccc4c(c3)OCO4)=C2Cc2cc(OC)c(OC)c(OC)c2)cc1` (centres unmarked) [PD 156707]: the “volume of ischemic damage in the cerebral hemisphere” value in assay [7] is “significantly reduced”. Further, the “protection / increase in pulmonary vascular resistance and pulmonary arterial pressure” value (“protection / increase” below) in assay [8] is “provide protection in a rat hypoxia model of hypertension”.
Consider `CCCOc1ccc2c(c1)C(c1ccc(OC)cc1OCCO)C(C(=O)O)C2c1ccc2c(c1)OCO2` (centres unmarked) [SB 217242], for which, in assay [9], the ischemic brain injury result was “Reduction of ischemic brain injury”.
For `COc1cccc(Oc2c(NS(=O)(=O)c3ccc(C(C)(C)C)cc3)ncnc2OCCO)c1` [Ro 46-2005], in assay [10], the “early cerebral vasospasm following SAH” value is “shown to prevent early cerebral vasospasm”.
Take `CC(C)C[C@@H]1NC(=O)[C@@H](C(C)C)NC(=O)[C@@H]2CCCN2C(=O)[C@@H](CC(=O)O)NC(=O)[C@@H](Cc2c[nH]c3ccccc23)NC1=O` [BQ-123] (cyclo(L[dW][dD]P[dV])): the “ET-1 induced bronchoconstriction and tracheal smooth muscle contraction” value in assay [11] was “shown to block ET-1 induced bronchoconstriction and tracheal smooth muscle contraction”. Further, in [8], the “protection / increase” value is “provide protection in a rat hypoxia model of hypertension”. Also, the “early cerebral vasospasm following SAH” value in assay [12] is “shown to prevent early cerebral vasospasm”.
For the compound `CCCOc1ccc2c(c1)C(c1ccc(OC)cc1OCC(=O)O)C(C(=O)O)C2c1ccc2c(c1)OCO2` (single isomer, unassigned) [SB 209670], the neointima formation entry in [13] was “found to ameliorate neointima formation”.
As for `COc1ccccc1Oc1c(NS(=O)(=O)c2ccc(C(C)(C)C)cc2)nc(-c2ncccn2)nc1OCCO` [Bosentan], in assay [14], the cardiac performance entry was “found to improve cardiac performance”. Further, the “protection / increase” value in assay [8] is “provide protection in a rat hypoxia model of hypertension”. Besides, the “efficacy in acute renal ischemia” value in assay [15] is reported as “effective in models of acute renal ischemia”. Also, in assay [16], the “ET-1-induced changes in gastric mucosal hemodynamics and ET-1-induced gastric ulceration” value is reported as “found to be an antagonist toward the ET-1-induced changes in gastric mucosal hemodynamics as well as on ET-1-induced gastric ulceration”.
As for `COc1ccc(C2(OCCN3CCOCC3)OC(=O)C(c3ccc4c(c3)OCO4)=C2Cc2cc(OC)c(OC)c(OC)c2)cc1` (centres unmarked) [Example 1], the IC50 in assay [2] is 12000 nM; in assay [3], 2.8 nM; in assay [5] (ET-1 0.3 nM, test compound 1 nM to 1 μM, 30 minutes) it was 10 nM.
`COc1ccc(C2(OCCN(C)C)OC(=O)C(c3ccc4c(c3)OCO4)=C2Cc2cc(OC)c(OC)c(OC)c2)cc1` (centres unmarked) [Example 4, 3-Benzo[1,3]dioxol-5-yl-5-(2-dimethylamino-ethoxy)-5-(4-methoxy-phenyl)-4-(3,4,5-trimethoxy-benzyl)-5H-furan-2-one]: the IC50 in assay [2] came to 1080 nM; in [3], 0.3 nM.
